Experiments:
[1] = target: T1, Cdk2(H71C) (C177A) (Homo sapiens, UniProt P24941, C177A/H71C); assay: Kinetic thiol consumption assay with Cdk2 mutant H71C; format: binding; parameters: key to Rate enhancement, Cdk2 H71C: rate constant with Cdk2 ÷ rate constant with model thiol (fold); settings: additional mutation C177A; for Rate constant with Cdk2 H71C: Protein: Cdk2, cysteine position H71C, in h^-1
T1 construct: poly-histidine; made in house; host or cells: E. coli
In short: (§1)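 Read-out is fluorescence at 380/470 nm, taken after 1 h at room temperature and normalized to a DMSO/thiol-only control over time. Thiol (5 μM Cdk2 mutant or model thiol) was in degassed pH 8 phosphate buffer with 2% v/v TCEP beads. Acrylamide rate constants for Cdk2 were divided by those with model thiol.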

[2] = Kinetic thiol consumption assay with model thiol glutathione; format: physicochemical; parameters: Rate constant with glutathione (k(GSH)): unit not given here; settings: for Rate constant with glutathione (k(GSH)): 500 μM ligand, 5 μM thiol, phosphate buffer pH 8; for Rate constant with Glutathione: Protein: Glutathione, cysteine position NA, in h-1
In short: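 First, 5 μM glutathione in degassed phosphate buffer (pH 8) receives immobilized TCEP beads (2% v/v). Then acrylamide is added and plates incubate 1 h at room temperature. Finally, fluorescence (380/470 nm) is normalized and fitted to first-order decay for rate constants.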

[3] = target: T2, Cdk2(S181C) (C177A) (Homo sapiens, UniProt P24941, C177A/S181C); assay: Kinetic thiol consumption assay with Cdk2 mutant S181C; format: binding; parameters: key to Rate enhancement, Cdk2 S181C: rate constant with Cdk2 ÷ rate constant with model thiol (fold); settings: additional mutation C177A; for Rate constant with Cdk2 S181C: Protein: Cdk2, cysteine position S181C, in h^-1
T2 construct: poly-histidine; made in house; host or cells: E. coli
In short: as §1

[4] = target: T3, Cdk2(T182C) (C177A) (Homo sapiens, UniProt P24941, C177A/T182C); assay: Kinetic thiol consumption assay with Cdk2 mutant T182C; format: binding; parameters: key to Rate enhancement, Cdk2 T182C: rate constant with Cdk2 ÷ rate constant with model thiol (fold); settings: additional mutation C177A; for Rate constant with Cdk2 T182C: Protein: Cdk2, cysteine position T182C, in h^-1
T3 construct: poly-histidine; made in house; host or cells: E. coli
In short: as §1

[5] = target: T4, Cdk2(S276C) (C177A) (Homo sapiens, UniProt P24941, C177A/S276C); assay: Kinetic thiol consumption assay with Cdk2 mutant S276C; format: binding; parameters: key to Rate enhancement, Cdk2 S276C: rate constant with Cdk2 ÷ rate constant with model thiol (fold); settings: additional mutation C177A; for Rate constant with Cdk2 S276C: Protein: Cdk2, cysteine position S276C, in h^-1
T4 construct: poly-histidine; made in house; host or cells: E. coli
In short: as §1

[6] = target: T5, Cdk2[C177A, F80C, K278C] (Homo sapiens, UniProt P24941, C177A/F80C/K278C); assay: Kinetic thiol consumption assay with mutant Cdk2 as model thiol; format: binding; parameters: unit not given here; settings: 500 μM ligand, 5 μM thiol, phosphate buffer pH 8
T5 construct: poly-histidine; made in house; host or cells: E. coli
In short: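 First-order rate constants were derived by exponential-decay fitting of DMSO/thiol-normalized fluorescence (380/470 nm) over time at room temperature. Thiol was 5 μM E. coli-expressed His-tagged Cdk2 mutant C177A/F80C/K278C in degassed pH 8 phosphate buffer containing 2% v/v TCEP beads.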

[7] = target: T6, Cdk2(C177A, F80C) (Homo sapiens, UniProt P24941, C177A/F80C); assay: Kinetic thiol consumption assay with Cdk2 mutant F80C, incl. kobs versus concentration (Kd, k2); format: binding; parameters: key to Rate enhancement, Cdk2 F80C: Cdk2 rate constant divided by model-thiol rate constant; settings: additional mutation C177A; for Rate constant with Cdk2 F80C: Protein: Cdk2, cysteine position F80C, in h^-1
T6 construct: poly-histidine; made in house; host or cells: E. coli
In short: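 His-tagged Cdk2(C177A/F80C) from E. coli or model thiol, 5 μM in degassed phosphate buffer pH 8 with TCEP beads, reacted with acrylamide ligands; fluorescence (ex/em 380/470 nm) normalized to DMSO control and fitted to first-order decay for kobs. Kd and k2 obtained from hyperbolic fit of kobs versus ligand concentration.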

[8] = target: T7, human cyclin-dependent kinase 2 (Cdk2) (Homo sapiens, UniProt P24941); assay: Kinetic thiol consumption assay with wild type Cdk2 (C177); format: binding; parameters: key to Rate enhancement, Cdk2 WT: k(Cdk2) divided by k(model thiol); Rate constant with Cdk2 (k(Cdk2)): unit not given here; settings: for Rate constant with Cdk2 (k(Cdk2)): 500 μM ligand, 5 μM thiol, phosphate buffer pH 8; for Rate enhancement, Cdk2 WT: no additional mutations; for Rate constant with Cdk2 WT: Protein: Cdk2, cysteine position WT, in h^-1; for k(Cdk2)/k(Cdk2_mut) rate enhancement: model thiol Cdk2[C177A, F80C, K278C]; for k(Cdk2)/k(GSH) rate enhancement: model thiol glutathione
T7 construct: poly-histidine; made in house; host or cells: E. coli
In short: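 Thiol 5 μM (Cdk2 or model thiol), degassed phosphate buffer pH 8, TCEP beads 2% v/v. Plates incubated 1 h RT, ex/em 380/470 nm. First-order decay fit → rate constant; ratio Cdk2/model thiol = rate enhancement.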

[9] = target: T8, Cdk2(R122C) (C177A) (Homo sapiens, UniProt P24941, C177A/R122C); assay: Kinetic thiol consumption assay with Cdk2 mutant R122C; format: binding; parameters: key to Rate enhancement, Cdk2 R122C: rate constant with Cdk2 ÷ rate constant with model thiol (fold); settings: additional mutation C177A; for Rate constant with Cdk2 R122C: Protein: Cdk2, cysteine position R122C, in h-1
T8 construct: poly-histidine; made in house; host or cells: E. coli
In short: as §1

[10] = target: T9, Cdk2(N272C) (C177A) (Homo sapiens, UniProt P24941, C177A/N272C); assay: Kinetic thiol consumption assay with Cdk2 mutant N272C; format: binding; parameters: key to Rate enhancement, Cdk2 N272: rate constant with Cdk2 ÷ rate constant with model thiol (fold); settings: for Rate enhancement, Cdk2 N272: Cdk2 N272, additional mutation C177A; for Rate constant with Cdk2 N272C: Protein: Cdk2, cysteine position N272C, additional mutation C177A, in h^-1
T9 construct: poly-histidine; made in house; host or cells: E. coli
In short: as §1

SMILES | Rate enhancement, Cdk2 H71C [1] | Rate constant with glutathione (k(GSH)) [2] | Rate constant with Glutathione [2] | Rate enhancement, Cdk2 S181C [3] | Rate constant with Cdk2 S181C [3] | Rate enhancement, Cdk2 T182C [4] | Rate constant with Cdk2 T182C [4] | Rate enhancement, Cdk2 S276C [5] | Rate constant with Cdk2 S276C [5] | Rate constant with Cdk2[C177A, F80C, K278C] (k(Cdk2_mut)) [6] | Rate enhancement, Cdk2 F80C [7] | Rate constant with Cdk2 (k(Cdk2)) [8] | Rate enhancement, Cdk2 WT [8] | Rate constant with Cdk2 WT [8] | k(Cdk2)/k(Cdk2_mut) rate enhancement [8] | k(Cdk2)/k(GSH) rate enhancement [8] | Rate enhancement, Cdk2 R122C [9] | Rate constant with Cdk2 R122C [9] | Rate enhancement, Cdk2 N272 [10] | Rate constant with Cdk2 N272C [10] | other results
C=CC(=O)Nc1[nH]nc(C2CC2)c1-c1ccc2c(c1)OCO2 [CA-041] | 0.007207 | 0.5441 | 0.5506 | 0.005756 | 0.003169 | 0.8554 | 0.471 | 0.0064 | 0.003524 | 1.933 | 0 | 1.146 | 2.081 | 1.146 | 0.5929 | 2.106 | 0.003956 | 0.002178 | 0.008585 | 0.004727 | Rate constant with Cdk2 H71C [1]: 0.003968
C=CC(=O)N1CCc2cc(-c3cccc(F)c3)ccc21 [CA-042] | 0.5064 | 0.00825 | 0.01463 | 0.3187 | 0.004663 | 5.547 | 0.08115 | 0.5636 | 0.008245 | 0.1351 | 0.4287 | 0.04257 | 2.91 | 0.04257 | 0.3151 | 5.157 | 0.1215 | 0.001778 | 0.09535 | 0.001395 | Rate constant with Cdk2 H71C [1]: 0.007409; Rate constant with Cdk2 F80C [7]: 0.006272
C=CC(=O)NC1(c2noc(C3CC3)n2)CCCC1 [CA-044] | 0 | 0.00557 | 0.008146 | 0.1134 | 0.0009239 | 0.2903 | 0.002365 | 0.1116 | 0.0009087 | 0.00154 | 0 | 0.00269 | 0.3307 | 0.002694 | 1.749 | 0.4838 | 0.2302 | 0.001875 | 0 | – | –
C=CC(=O)N1CCC2(CC1)NC(=O)N(C)C2=O [CA-046] | 0.07112 | 0.00955 | 0.01631 | 0.1987 | 0.00324 | 0.595 | 0.009705 | 0.7069 | 0.01153 | 0.00249 | 0.1163 | 0.00343 | 0.2104 | 0.003432 | 1.377 | 0.3593 | 0.2397 | 0.00391 | 0.09295 | 0.001516 | Rate constant with Cdk2 H71C [1]: 0.00116; Rate constant with Cdk2 F80C [7]: 0.001897
C=CC(=O)NC1(C2CC2)CC1 [CA-047] | 0 | 0.00756 | 0.0123 | 0.2766 | 0.003402 | 1.063 | 0.01308 | 0.5464 | 0.006721 | 0.00346 | 0.1307 | 0.0056 | 0.4553 | 0.0056 | 1.617 | 0.7407 | 0.2628 | 0.003233 | 0.1665 | 0.002048 | Rate constant with Cdk2 F80C [7]: 0.001607
